These results are taken from patent publication US20250171423A1, “PHARMACEUTICAL COMPOUNDS FOR THE TREATMENT OF COMPLEMENT MEDIATED DISORDERS” (Achillion Pharmaceuticals, Inc., priority 2020, published 2025).

Each structure is given as a SMILES string. Counter-ions that a name gives are not always drawn. Some results are limits rather than exact numbers.

The target in the test is T1, Human complement C1s enzyme (Homo sapiens, UniProt P09871).
T1 construct: purified from human serum, Complement Technology, Inc; purchased Complement Technology, Inc; host or cells: human serum
T1 sequence (P09871 438-688 limits assumed): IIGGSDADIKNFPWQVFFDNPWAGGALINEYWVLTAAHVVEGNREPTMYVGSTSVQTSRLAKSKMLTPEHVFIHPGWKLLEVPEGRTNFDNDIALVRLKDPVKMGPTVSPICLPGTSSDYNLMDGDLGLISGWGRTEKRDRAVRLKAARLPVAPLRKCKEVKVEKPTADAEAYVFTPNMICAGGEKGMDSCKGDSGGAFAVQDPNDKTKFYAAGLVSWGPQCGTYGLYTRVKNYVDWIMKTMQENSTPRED
T1 sequence (P09871 16-437 partner limits assumed): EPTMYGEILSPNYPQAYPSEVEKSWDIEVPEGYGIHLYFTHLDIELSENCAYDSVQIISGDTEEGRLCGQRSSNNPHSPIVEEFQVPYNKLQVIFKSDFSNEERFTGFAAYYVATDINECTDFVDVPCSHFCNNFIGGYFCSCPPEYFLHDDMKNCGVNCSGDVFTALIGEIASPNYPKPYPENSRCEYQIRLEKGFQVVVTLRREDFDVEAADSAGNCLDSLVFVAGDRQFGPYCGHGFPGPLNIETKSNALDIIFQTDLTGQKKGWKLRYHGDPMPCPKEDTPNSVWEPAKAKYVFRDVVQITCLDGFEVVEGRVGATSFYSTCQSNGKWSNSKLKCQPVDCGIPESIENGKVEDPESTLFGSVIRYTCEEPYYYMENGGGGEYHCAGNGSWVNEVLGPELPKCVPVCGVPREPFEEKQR
Put plainly: Human C1s Enzyme Assay. It is filed as biochemical. Particulars: human C1s 1.16 nM, 5 min preincubation, substrate Z-L-Lys-SBzl 100 μM, A405; read-out: C1s Protease Activity. A digest of the protocol:
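IC50 values were fitted by nonlinear regression to rates measured as A405 every 30 s for 30 min. The thioester substrate Z-L-Lys-SBzl and Ellman's reagent were each at 100 μM. Serum-derived C1s at 1.16 nM final had 5 min of room-temperature preincubation with compound (pH 7.5 Tris buffer, 1 M NaCl).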
With `C[C@@H](NC(=O)[C@@H]1CC2(CCCC2)CN1C(=O)CNC(=O)CCCOc1ccccc1)c1cc(C(=N)N)cs1` [Compound 114, (S)-N-((R)-1-(4-carbamimidoylthiophen-2-yl)ethyl)-2-((4-phenoxybutanoyl)glycyl)-2-azaspiro[4.4]nonane-3-carboxamide], the IC50 is under 100 nM.
For `N=C(N)c1csc([C@H](NC(=O)[C@@H]2C[C@@H](OC(F)F)CN2C(=O)CNC(=O)c2ccc(Oc3ccccc3)cc2)C2CCCC2)c1` [Compound 193, (2S,4R)-N-((R)-(4-carbamimidoylthiophen-2-yl)(cyclopentyl)methyl)-4-(difluoromethoxy)-1-((4-phenoxybenzoyl)glycyl)pyrrolidine-2-carboxamide], the IC50 was over 1000 nM.
For the compound `C[C@@]12C[C@@H]1N(C(=O)CNC(=O)c1ccc(Oc3ccccc3)cc1)[C@H](C(=O)NC1CCc3c(C(=N)N)csc3C1)C2` (stereo partly drawn) [Compound 258, (1S,3S,5S)-N-(3-carbamimidoyl-4,5,6,7-tetrahydrobenzo[b]thiophen-6-yl)-5-methyl-2-((4-phenoxybenzoyl)glycyl)-2-azabicyclo[3.1.0]hexane-3-carboxamide], the IC50 was over 1000 nM.
With `C[C@H](O)[C@H](O)[C@@H](O)[C@@H](O)CNCC(=O)N1[C@H]2C[C@@]2(C)C[C@H]1C(=O)NCc1cc(C(=N)N)cs1` [Compound 24, (1S,3S,5S)-N-((4-carbamimidoylthiophen-2-yl)methyl)-5-methyl-2-(((2S,3S,4S,5S)-2,3,4,5-tetrahydroxyhexyl)glycyl)-2-azabicyclo[3.1.0]hexane-3-carboxamide hydrochloride] the figure was over 1000 nM.
With `COC[C@@]1(F)C[C@@H](C(=O)N[C@H](C)c2cc(C(=N)N)cs2)N(C(=O)CNC(=O)CCCOc2ccccc2)C1` [Compound 149, (2S,4R)-N-((R)-1-(4-carbamimidoylthiophen-2-yl)ethyl)-4-fluoro-4-(methoxymethyl)-1-((4-phenoxybutanoyl)glycyl)pyrrolidine-2-carboxamide] the figure was under 100 nM; with `C[C@@H](NC(=O)[C@@H]1C[C@@]23COCCCCCCCCCCCCCC(=O)N[C@@H](CCOc4ccccc4)C(=O)NCC(=O)N1[C@H]2C3)c1cc(C(=N)N)cs1` [Compound 255, (1R,19S,25S,28S)-N-((R)-1-(4-carbamimidoylthiophen-2-yl)ethyl)-17,20,23-trioxo-19-(2-phenoxyethyl)-3-oxa-18,21,24-triazatricyclo[22.2.2.0^125]octacosane-28-carboxamide], under 100 nM.
Turning to `C[C@@]12C[C@@H]1N(C(=O)CNC1(c3ccc(Oc4ccccc4)cc3)COC1)[C@H](C(=O)NCc1cc(C(=N)N)cs1)C2` [Compound 249, (1S,3S,5S)-N-[(4-carbamimidoylthiophen-2-yl)methyl]-5-methyl-2-(2-{[3-(4-phenoxyphenyl)oxetan-3-yl]amino}acetyl)-2-azabicyclo[3.1.0]hexane-3-carboxamide], the IC50 is under 100 nM.
With `C[C@@H](NC(=O)[C@@H]1CC2(CN1C(=O)CNC(=O)c1ccc(C(=O)c3ccccc3)cc1)OCCO2)c1cc(C(=N)N)cs1` [Compound 219, (S)-7-((4-benzoylbenzoyl)glycyl)-N-((R)-1-(4-carbamimidoylthiophen-2-yl)ethyl)-1,4-dioxa-7-azaspiro[4.4]nonane-8-carboxamide], the IC50 is under 100 nM.
Next, `N=C(N)c1csc(CNC(=O)[C@@H]2CC(O)(C(F)(F)F)CN2C(=O)CNC(=O)CCCOc2ccccc2)c1` (stereo partly drawn) [Compound 62, (2S)-N-((4-carbamimidoylthiophen-2-yl)methyl)-4-hydroxy-1-((4-phenoxybutanoyl)-glycyl)-4-(trifluoromethyl)pyrrolidine-2-carboxamide]: under 100 nM; `N=C(N)c1csc(CNC(=O)[C@@H]2C[C@H](C3CCCCC3)CN2C(=O)CNC(=O)CCCOc2ccccc2)c1` [Compound 242, (2S,4R)-N-((4-carbamimidoylthiophen-2-yl)methyl)-4-cyclohexyl-1-((4-phenoxybutanoyl)glycyl)pyrrolidine-2-carboxamide]: under 100 nM.
With `COc1ccc(CNC(=O)[C@@H]2C[C@]3(C)C[C@@H]3N2C(=O)CNC(=O)c2ccc(Oc3ccccc3)cc2)cc1` [Compound 43, (1S,3S,5S)-N-(4-methoxybenzyl)-5-methyl-2-((4-phenoxy-benzoyl)-glycyl)-2-azabicyclo[3.1.0]hexane-3-carboxamide] the figure was over 1000 nM; with `Cc1cccc([C@@H]2C[C@@H](C(=O)NCc3cc(C(=N)N)cs3)N(C(=O)CNC(=O)CCCOc3ccccc3)C2)c1` [Compound 171, (2S,4S)-N-((4-carbamimidoylthiophen-2-yl)methyl)-1-((4-phenoxybutanoyl)glycyl)-4-(m-tolyl)pyrrolidine-2-carboxamide], under 100 nM.
For the compound `C[C@@H](NC(=O)[C@@H]1C[C@@H](OC(F)F)CN1C(=O)CNC(=O)CCCOc1ccc(F)cc1)c1cc(C(=N)N)cs1` [Compound 108, (2S,4R)-N-((R)-1-(4-carbamimidoylthiophen-2-yl)ethyl)-4-(difluoromethoxy)-1-((4-(4-fluorophenoxy)butanoyl)glycyl)pyrrolidine-2-carboxamide], the IC50 is under 100 nM.
For the compound `C[C@@H](NC(=O)[C@@H]1C[C@]2(COCCCCCC(=O)O)C[C@@H]2N1C(=O)CNC(=O)CCCOc1ccccc1)c1cc(C(=N)N)cs1` [Compound 169, 6-(((1S,3S,5R)-3-(((R)-1-(4-carbamimidoylthiophen-2-yl)ethyl)carbamoyl)-2-((4-phenoxybutanoyl)glycyl)-2-azabicyclo[3.1.0]hexan-5-yl)methoxy)hexanoic acid], the IC50 is under 100 nM.
Next, `N=C(N)c1csc(CNC(=O)C23CCC(CC2)N3C(=O)CNC(=O)c2ccc(Oc3ccccc3)cc2)c1` [Compound 16, N-((4-carbamimidoylthiophen-2-yl)methyl)-7-((4-phenoxybenzoyl)glycyl)-7-azabicyclo[2.2.1]heptane-1-carboxamide]: 100 to 1000 nM; `C[C@@]12C[C@@H]1N(C(=O)CNC(=O)COCCOCCNC(=O)COCCOCCNC(=O)CC[C@H](NC(=O)CCCCCCCCCCCCCCCCC(=O)O)C(=O)O)[C@H](C(=O)NCc1cc(C(=N)N)cs1)C2` [Compound 100, 17-{[(1S)-3-{[2-(2-{[(2-{2-[({2-[(1S,3S,5S)-3-{[(4-carbamimidoylthiophen-2-yl)methyl]-carbamoyl}-5-methyl-2-azabicyclo[3.1.0]hexan-2-yl]-2-oxoethyl}carbamoyl)methoxy]ethoxy}ethyl)-carbamoyl]methoxy}ethoxy)ethyl]carbamoyl}-1-carboxypropyl]-carbamoyl}heptadecanoic acid]: over 1000 nM; `CCCC(COc1ccccc1)CC(=O)NCC(=O)N1CC2(C[C@H]1C(=O)NCc1cc(C(=N)N)cs1)OCCO2` (stereo partly drawn) [Compound 90, (8S)-N-((4-carbamimidoylthiophen-2-yl)methyl)-7-((3-(phenoxymethyl)hexanoyl)glycyl)-1,4-dioxa-7-azaspiro[4.4]nonane-8-carboxamide]: under 100 nM.
As to `C[C@@H](NC(=O)[C@@H]1C[C@@]23COCCCCCCCCCCCCc4cc(ccc4Oc4ccc(F)cc4)C(=O)NCC(=O)N1[C@H]2C3)c1cc(C(=N)N)cs1` [Compound 257, (1R,26S,29S)-N-[(1R)-1-(4-carbamimidoylthiophen-2-yl)ethyl]-17-(4-fluorophenoxy)-21,24-dioxo-3-oxa-22,25-diazatetracyclo[23.2.2.1^16,^20.0^1,^26]triaconta-16,18,20(30)-triene-29-carboxamide], the IC50 is over 1000 nM.
With `COC[C@@]12C[C@@H]1N(C(=O)CNC(=O)c1ccc(Oc3ccccc3)cc1)[C@H](C(=O)NCc1cc(C(=N)N)cs1)C2` [Compound 20, (1S,3S,5R)-N-((4-carbamimidoylthiophen-2-yl)methyl)-5-(methoxymethyl)-2-((4-phenoxybenzoyl)glycyl)-2-azabicyclo[3.1.0]hexane-3-carboxamide] the figure was under 100 nM.
On to `C[C@@H](NC(=O)[C@@H]1C[C@](F)(CF)CN1C(=O)CNC(=O)c1ccc(Oc2ccccc2)cc1)c1cc(C(=N)N)cs1` [Compound 187, (2S,4R)-N-((R)-1-(4-carbamimidoylthiophen-2-yl)ethyl)-4-fluoro-4-(fluoromethyl)-1-((4-phenoxybenzoyl)glycyl)pyrrolidine-2-carboxamide], for which the IC50 is under 100 nM.
Regarding `CC(C)(C)c1ccc(OCCCC(=O)NCC(=O)N2[C@H]3C[C@@]3(C)C[C@H]2C(=O)NCc2cc(C(=N)N)cs2)cc1` [Compound 87, (1S,3S,5S)-2-((4-(4-(tert-butyl)phenoxy)butanoyl)glycyl)-N-((4-carbamimidoyl-thiophen-2-yl)methyl)-5-methyl-2-azabicyclo[3.1.0]hexane-3-carboxamide], the IC50 is under 100 nM.
